Results taken from publication PMC5218480 (PLoS ONE, 2017).

Tested on: MV-4-11 cells
Test: Gene expression microarray analysis (Affymetrix PrimeView) and GSEA
Assay type: cell-based, human
Set-up: RFU PODN (11730768_x_at) / Fold change /veh PODN (11730768_x_at) / RFU LINC00158 (11744669_a_at) / Fold change /veh LINC00158 (11744669_a_at) / RFU DUSP10 (11751237_a_at) / Fold change /veh DUSP10 (11751237_a_at) / RFU ID3 (11757404_x_at) / Fold change /veh ID3 (11757404_x_at) / RFU PLEKHG5 (11737974_s_at) / Fold change /veh PLEKHG5 (11737974_s_at) / RFU LRRC4B (11730491_at) / Fold change /veh LRRC4B (11730491_at) / RFU GIMAP4 (11747438_a_at) / Fold change /veh GIMAP4 (11747438_a_at) / RFU KRT8 (11758183_x_at) / Fold change /veh KRT8 (11758183_x_at) / RFU CNN1 (11734310_a_at) / Fold change /veh CNN1 (11734310_a_at) / RFU VPS37D (11726825_at) / Fold change /veh VPS37D (11726825_at) / RFU C10orf10 (11716522_x_at) / Fold change /veh C10orf10 (11716522_x_at) / RFU KIR2DL2 /// KIR2DL4 /// KIR2DL5A /// KIR2DL5B /// KIR2DS1 /// KIR2DS2 /// KIR2DS3 /// KIR2DS4 /// KIR3DL3 /// KIR3DL3 /// KIR3DS1 (11738374_at) / Fold change /veh KIR2DL2 /// KIR2DL4 /// KIR2DL5A /// KIR2DL5B /// KIR2DS1 /// KIR2DS2 /// KIR2DS3 /// KIR2DS4 /// KIR3DL3 /// KIR3DL3 /// KIR3DS1 (11738374_at) / RFU C1QL1 (11718748_at) / Fold change /veh C1QL1 (11718748_at) / RFU TMPRSS4 (11747572_a_at) / Fold change /veh TMPRSS4 (11747572_a_at) / RFU HAMP (11756126_x_at) / Fold change /veh HAMP (11756126_x_at) / RFU RNFT2 (11725882_a_at) / Fold change /veh RNFT2 (11725882_a_at) / RFU NR4A2 (11747474_a_at) / Fold change /veh NR4A2 (11747474_a_at) / RFU ABCC12 (11746883_a_at) / Fold change /veh ABCC12 (11746883_a_at) / RFU TMEM136 (11760407_x_at) / Fold change /veh TMEM136 (11760407_x_at) / RFU CLDN22 /// WWC2 (11732394_at) / Fold change /veh CLDN22 /// WWC2 (11732394_at) / RFU HLA-DPB1 (11760878_x_at) / Fold change /veh HLA-DPB1 (11760878_x_at) / RFU SPINT1 (11716480_a_at) / Fold change /veh SPINT1 (11716480_a_at) / RFU GAP43 (11754022_s_at) / Fold change /veh GAP43 (11754022_s_at) / RFU A4GNT (11735810_at) / Fold change /veh A4GNT (11735810_at) / RFU PRB3 (11715151_x_at) / Fold change /veh PRB3 (11715151_x_at) / RFU TUBB4B (11761932_at) / Fold change /veh TUBB4B (11761932_at) / RFU CAPN14 (11732068_a_at) / Fold change /veh CAPN14 (11732068_a_at) / RFU TMCC2 (11721928_a_at) / Fold change /veh TMCC2 (11721928_a_at) / RFU IRGQ (11745062_a_at) / Fold change /veh IRGQ (11745062_a_at) / RFU FAM174B (11720279_a_at) / Fold change /veh FAM174B (11720279_a_at) / RFU TMPRSS4 (11748680_a_at) / Fold change /veh TMPRSS4 (11748680_a_at) / RFU FAM212B (11763350_a_at) / Fold change /veh FAM212B (11763350_a_at) / RFU PLEKHG5 (11743358_a_at) / Fold change /veh PLEKHG5 (11743358_a_at) / RFU ZSCAN30 (11745921_a_at) / Fold change /veh ZSCAN30 (11745921_a_at) / RFU CMKLR1 (11741424_a_at) / Fold change /veh CMKLR1 (11741424_a_at) / RFU LOC101060620 /// MAPK8IP1 (11723275_at) / Fold change /veh LOC101060620 /// MAPK8IP1 (11723275_at) / RFU SPTSSB (11747773_x_at) / Fold change /veh SPTSSB (11747773_x_at) / RFU PRSS12 (11739890_at) / Fold change /veh PRSS12 (11739890_at) / RFU BIN1 (11741810_x_at) / Fold change /veh BIN1 (11741810_x_at) / RFU WNT11 (11732464_a_at) / Fold change /veh WNT11 (11732464_a_at) / RFU C10orf10 (11716521_a_at) / Fold change /veh C10orf10 (11716521_a_at) / RFU C5orf56 (11738089_at) / Fold change /veh C5orf56 (11738089_at) / RFU CYB561 (11721691_x_at) / Fold change /veh CYB561 (11721691_x_at) / RFU ANKRD19P (11752326_a_at) / Fold change /veh ANKRD19P (11752326_a_at) / RFU OR2T12 /// OR2T33 /// OR2T8 (11738714_s_at) / Fold change /veh OR2T12 /// OR2T33 /// OR2T8 (11738714_s_at) / RFU VCAN (11748164_a_at) / Fold change /veh VCAN (11748164_a_at) / RFU JSRP1 (11732532_at) / Fold change /veh JSRP1 (11732532_at) / RFU KRTAP10-11 (11738290_x_at) / Fold change /veh KRTAP10-11 (11738290_x_at) / RFU MYO3A (11730013_a_at) / Fold change /veh MYO3A (11730013_a_at) / RFU EBF3 (11725865_a_at) / Fold change /veh EBF3 (11725865_a_at) / RFU CAMK2N1 (11719241_x_at) / Fold change /veh CAMK2N1 (11719241_x_at) / RFU C5orf56 (11738088_a_at) / Fold change /veh C5orf56 (11738088_a_at) / RFU OLFML3 (11715873_a_at) / Fold change /veh OLFML3 (11715873_a_at) / RFU LOC100653217 /// NTM (11731650_a_at) / Fold change /veh LOC100653217 /// NTM (11731650_a_at) / RFU MAPK11 (11762145_a_at) / Fold change /veh MAPK11 (11762145_a_at) / RFU FIZ1 (11724087_x_at) / Fold change /veh FIZ1 (11724087_x_at) / RFU OASL (11726364_x_at) / Fold change /veh OASL (11726364_x_at) / RFU SOX15 (11748057_x_at) / Fold change /veh SOX15 (11748057_x_at) / RFU CD79A (11719716_a_at) / Fold change /veh CD79A (11719716_a_at) / RFU HIST1H1D (11736915_at) / Fold change /veh HIST1H1D (11736915_at) / RFU CASKIN2 (11723855_a_at) / Fold change /veh CASKIN2 (11723855_a_at) / RFU LOC730098 (11760151_x_at) / Fold change /veh LOC730098 (11760151_x_at) / RFU OR4N2 (11742367_at) / Fold change /veh OR4N2 (11742367_at) / RFU PRRT2 (11749266_a_at) / Fold change /veh PRRT2 (11749266_a_at) / RFU SNX32 (11753110_a_at) / Fold change /veh SNX32 (11753110_a_at) / RFU CDHR5 (11726645_a_at) / Fold change /veh CDHR5 (11726645_a_at) / RFU RCAN1 (11760418_a_at) / Fold change /veh RCAN1 (11760418_a_at) / RFU FAM167A (11723789_a_at) / Fold change /veh FAM167A (11723789_a_at) / RFU FAM26E (11764081_at) / Fold change /veh FAM26E (11764081_at) / RFU ISYNA1 (11749810_s_at) / Fold change /veh ISYNA1 (11749810_s_at) / RFU ACY1 (11761880_at) / Fold change /veh ACY1 (11761880_at) / RFU 11764098_at / Fold change /veh 11764098_at / RFU SAMD14 (11745864_x_at) / Fold change /veh SAMD14 (11745864_x_at) / RFU NPB (11741838_a_at) / Fold change /veh NPB (11741838_a_at) / RFU TMPRSS6 (11731388_a_at) / Fold change /veh TMPRSS6 (11731388_a_at) / RFU KRTAP10-2 (11738614_at) / Fold change /veh KRTAP10-2 (11738614_at) / RFU ARHGAP8 /// PRR5-ARHGAP8 (11727945_x_at) / Fold change /veh ARHGAP8 /// PRR5-ARHGAP8 (11727945_x_at) / RFU KRTAP5-7 /// NADSYN1 (11734609_at) / Fold change /veh KRTAP5-7 /// NADSYN1 (11734609_at) / RFU RASL12 (11751679_a_at) / Fold change /veh RASL12 (11751679_a_at) / RFU CDKN2B (11736163_a_at) / Fold change /veh CDKN2B (11736163_a_at) / RFU PRF1 (11729649_at) / Fold change /veh PRF1 (11729649_at) / RFU, ZNF638 /// ZNF638-IT1 / Fold change vs veh, ZNF638 /// ZNF638-IT1 / RFU, PANK3 / Fold change vs veh, PANK3 / RFU, SH3YL1 / Fold change vs veh, SH3YL1 / RFU, ZEB2 / Fold change vs veh, ZEB2 / RFU, NRIP1 / Fold change vs veh, NRIP1 / RFU, PTTG1IP / Fold change vs veh, PTTG1IP / RFU, CAPN2 / Fold change vs veh, CAPN2 / RFU, MED14 / Fold change vs veh, MED14 / RFU, SNORA58 / Fold change vs veh, SNORA58 / RFU, C1orf63 / Fold change vs veh, C1orf63 / RFU, LRRFIP1 / Fold change vs veh, LRRFIP1 / RFU, NDUFAF7 / Fold change vs veh, NDUFAF7 / RFU, SLC12A2 / Fold change vs veh, SLC12A2 / RFU, IBTK / Fold change vs veh, IBTK / RFU, ESF1 / Fold change vs veh, ESF1 / Fold change vs veh, TMEM50B / RFU, TAOK1 / Fold change vs veh, TAOK1 / RFU, ACBD3 / Fold change vs veh, ACBD3 / RFU, TMA16 / Fold change vs veh, TMA16 / RFU, RWDD3 / Fold change vs veh, RWDD3 / RFU, BCAT1 / Fold change vs veh, BCAT1 / RFU, EDEM3 / Fold change vs veh, EDEM3 / RFU, TMEM33 / Fold change vs veh, TMEM33 / RFU, WDR75 / Fold change vs veh, WDR75 / RFU, AHCTF1 / Fold change vs veh, AHCTF1 / RFU, TFRC / Fold change vs veh, TFRC / RFU, ZDHHC17 / Fold change vs veh, ZDHHC17 / RFU, NOM1 / Fold change vs veh, NOM1 / RFU, ARL8B / Fold change vs veh, ARL8B / RFU, ZBTB11 / Fold change vs veh, ZBTB11 / RFU, TAMM41 / Fold change vs veh, TAMM41 / RFU, KIAA1704 /// LOC100996395 / Fold change vs veh, KIAA1704 /// LOC100996395 / RFU, ING1 / Fold change vs veh, ING1 / RFU, TRMT61B / Fold change vs veh, TRMT61B / RFU, FUBP3 / Fold change vs veh, FUBP3 / RFU, TP53 / Fold change vs veh, TP53 / RFU, TNKS2 / Fold change vs veh, TNKS2 / RFU, ZFP14 / Fold change vs veh, ZFP14 / RFU, ACTR2 / Fold change vs veh, ACTR2 / RFU, PPP3R1 / Fold change vs veh, PPP3R1 / RFU, PIK3R1 / Fold change vs veh, PIK3R1 / RFU, HNRNPA1 / Fold change vs veh, HNRNPA1 / RFU, RNF170 / Fold change vs veh, RNF170 / RFU, ZNF28 / Fold change vs veh, ZNF28 / RFU, RNGTT / Fold change vs veh, RNGTT / RFU, OGT / Fold change vs veh, OGT / RFU, BRD1 / Fold change vs veh, BRD1 / RFU, MARS / Fold change vs veh, MARS / RFU, ZNF655 / Fold change vs veh, ZNF655 / RFU, FAHD1 / Fold change vs veh, FAHD1 / RFU, BDP1 / Fold change vs veh, BDP1 / RFU, LRRCC1 / Fold change vs veh, LRRCC1 / RFU, ARID1A / Fold change vs veh, ARID1A / RFU, ZNF146 / Fold change vs veh, ZNF146 / RFU, ZNF330 / Fold change vs veh, ZNF330 / RFU, GPN3 / Fold change vs veh, GPN3 / RFU, C9orf123 / Fold change vs veh, C9orf123 / RFU, N4BP2L2 / Fold change vs veh, N4BP2L2 / RFU, ARFIP1 / Fold change vs veh, ARFIP1 / RFU, FAM179B / Fold change vs veh, FAM179B / RFU, BCL10 / Fold change vs veh, BCL10 / RFU, UHRF1BP1L / Fold change vs veh, UHRF1BP1L / RFU, BET1 / Fold change vs veh, BET1 / RFU, CNOT2 / Fold change vs veh, CNOT2 / RFU, ZNF268 / Fold change vs veh, ZNF268 / Fold change vs veh, ZNF507 / RFU, DGCR2 / Fold change vs veh, DGCR2 / RFU, WDSUB1 / Fold change vs veh, WDSUB1 / Fold change vs veh, HSP90B1 /// MIR3652 / RFU, ADSS / Fold change vs veh, ADSS / RFU, GK / Fold change vs veh, GK / RFU, ZNF148 / Fold change vs veh, ZNF148 / RFU, TAF9 / Fold change vs veh, TAF9 / RFU, SLC1A5 / Fold change vs veh, SLC1A5 / RFU, SLMO2 / Fold change vs veh, SLMO2 / RFU, ABCC4 / Fold change vs veh, ABCC4 / RFU, LOC101060439 /// RAP1B / Fold change vs veh, LOC101060439 /// RAP1B / RFU, RFX7 / Fold change vs veh, RFX7 / RFU, GTPBP10 / Fold change vs veh, GTPBP10 / RFU, CNEP1R1 / Fold change vs veh, CNEP1R1 / RFU, BIVM-ERCC5 /// ERCC5 / Fold change vs veh, BIVM-ERCC5 /// ERCC5 / RFU, ILF3 / Fold change vs veh, ILF3 / RFU 11762660_at / Fold change /veh 11762660_at / RFU VCAN (11757783_s_at) / Fold change /veh VCAN (11757783_s_at) / RFU DDX43 (11728927_at) / Fold change /veh DDX43 (11728927_at) / RFU KRT8 (11758188_x_at) / Fold change /veh KRT8 (11758188_x_at) / RFU NKD1 (11759106_at) / Fold change /veh NKD1 (11759106_at) / RFU SRD5A1 (11742802_a_at) / Fold change /veh SRD5A1 (11742802_a_at) / RFU TPSAB1 /// TPSB2 (11721975_s_at) / Fold change /veh TPSAB1 /// TPSB2 (11721975_s_at) / RFU GSTM3 (11746129_a_at) / Fold change /veh GSTM3 (11746129_a_at) / RFU IL23R (11737362_x_at) / Fold change /veh IL23R (11737362_x_at) / RFU TMEM51 (11727254_a_at) / Fold change /veh TMEM51 (11727254_a_at) / RFU PIWIL2 (11732686_x_at) / Fold change /veh PIWIL2 (11732686_x_at) / RFU ORM1 (11744905_x_at) / Fold change /veh ORM1 (11744905_x_at) / RFU CCDC152 (11743942_at) / Fold change /veh CCDC152 (11743942_at) / RFU ECM1 (11717891_a_at) / Fold change /veh ECM1 (11717891_a_at) / RFU IL23R (11748794_a_at) / Fold change /veh IL23R (11748794_a_at) / RFU TNFAIP8L3 (11732012_x_at) / Fold change /veh TNFAIP8L3 (11732012_x_at) / RFU MBOAT4 (11741988_at) / Fold change /veh MBOAT4 (11741988_at) / RFU 11764193_at / Fold change /veh 11764193_at / RFU TMEM53 (11763286_at) / Fold change /veh TMEM53 (11763286_at) / RFU MAGEB2 (11727129_at) / Fold change /veh MAGEB2 (11727129_at) / RFU TMEM200A (11744735_a_at) / Fold change /veh TMEM200A (11744735_a_at) / RFU CCDC152 (11751479_a_at) / Fold change /veh CCDC152 (11751479_a_at) / RFU FAM211A (11726209_a_at) / Fold change /veh FAM211A (11726209_a_at) / RFU RGS16 (11746705_a_at) / Fold change /veh RGS16 (11746705_a_at) / RFU VCAN (11755009_s_at) / Fold change /veh VCAN (11755009_s_at) / RFU RHOB (11743442_s_at) / Fold change /veh RHOB (11743442_s_at) / RFU RGS16 (11720943_a_at) / Fold change /veh RGS16 (11720943_a_at) / RFU RGS16 (11720944_at) / Fold change /veh RGS16 (11720944_at) / RFU, VPS4B / Fold change vs veh, VPS4B / RFU, CREB1 / Fold change vs veh, CREB1 / RFU, DNAJC13 / Fold change vs veh, DNAJC13 / RFU, GNAQ / Fold change vs veh, GNAQ / RFU, CDK5R1 / Fold change vs veh, CDK5R1 / RFU, ZRANB3 / Fold change vs veh, ZRANB3 / RFU, CUL4A / Fold change vs veh, CUL4A / RFU, CCNY / Fold change vs veh, CCNY / RFU, UFL1 / Fold change vs veh, UFL1 / RFU, COG3 / Fold change vs veh, COG3 / RFU, DIAPH2 / Fold change vs veh, DIAPH2 / RFU, SKA2 / Fold change vs veh, SKA2 / RFU, AFF3 / Fold change vs veh, AFF3 / RFU, LMF1 / Fold change vs veh, LMF1 / RFU, IPO11 / Fold change vs veh, IPO11 / RFU, DFFB / Fold change vs veh, DFFB / RFU, FOXP1 / Fold change vs veh, FOXP1 / RFU, CARD8 / Fold change vs veh, CARD8 / RFU, STRN3 / Fold change vs veh, STRN3 / RFU, ADK / Fold change vs veh, ADK / RFU, RASSF2 / Fold change vs veh, RASSF2 / RFU, WIPF1 / Fold change vs veh, WIPF1 / RFU, LARP1B / Fold change vs veh, LARP1B / RFU, RASA1 / Fold change vs veh, RASA1 / RFU, RB1 / Fold change vs veh, RB1 / RFU, PPFIA1 / Fold change vs veh, PPFIA1 / RFU, MAT2A / Fold change vs veh, MAT2A / RFU, CCT5 / Fold change vs veh, CCT5 / RFU, WDR92 / Fold change vs veh, WDR92 / RFU, CUX1 / Fold change vs veh, CUX1 / RFU, TTC7A / Fold change vs veh, TTC7A / RFU, TMEM135 / Fold change vs veh, TMEM135 / RFU, DEPTOR / Fold change vs veh, DEPTOR / RFU, CPM / Fold change vs veh, CPM / RFU, DNAJB6 / Fold change vs veh, DNAJB6 / RFU, CACNA2D3 / Fold change vs veh, CACNA2D3 / RFU, DTX4 / Fold change vs veh, DTX4 / RFU, TFCP2 / Fold change vs veh, TFCP2 / RFU, GMCL1 /// GMCL1P1 / Fold change vs veh, GMCL1 /// GMCL1P1 / RFU, AEBP2 / Fold change vs veh, AEBP2 / RFU, SNHG1 /// SNORD22 /// SNORD25 /// SNORD26 /// SNORD27 /// SNORD28 /// SNORD29 /// SNORD31 / Fold change vs veh, SNHG1 /// SNORD22 /// SNORD25 /// SNORD26 /// SNORD27 /// SNORD28 /// SNORD29 /// SNORD31 / Fold change (Aza/veh), C12orf56 (ProbeSet 11735607_a_at) / Fold change (ACY-1035/veh), C12orf56 (ProbeSet 11735607_a_at) / Fold change (Aza/veh), FGFR1OP (ProbeSet 11751329_s_at) / Fold change (ACY-1035/veh), FGFR1OP (ProbeSet 11751329_s_at) / Fold change (Aza/veh), VPS36 (ProbeSet 11739960_a_at) / Fold change (ACY-1035/veh), VPS36 (ProbeSet 11739960_a_at) / RFU SYPL1 (11715823_x_at) / Fold change /veh SYPL1 (11715823_x_at) / RFU IGFBP7 (11715501_s_at) / Fold change /veh IGFBP7 (11715501_s_at) / RFU REEP3 (11722064_at) / Fold change /veh REEP3 (11722064_at) / RFU IGLL1 (11728026_x_at) / Fold change /veh IGLL1 (11728026_x_at): dose or concentration left out as unconfirmed
Conditions: ProbeSet 11748670_a_at; LIST B

## Nc1ncn([C@@H]2O[C@H](CO)[C@@H](O)[C@H]2O)c(=O)n1 [azacitidine]
  RFU, PIK3R1: 80.66 RFU
